Results reported in patent US20240424010A1, “NICOTINAMIDE RIBOSIDE TRIOLEATES CHLORIDE, COMPOSITIONS CONTAINING THIS COMPOUND, AND METHODS OF MAKING AND USING THIS COMPOUND” (SOCIETE DES PRODUITS NESTLE S.A., priority 2021, published 2024).

Key:
[1] = system: NAD+ level in mammalian cell; settings: cited from earlier work
[2] = Hydrolysis stability of NRTOCl and NRCl oil-in-water emulsions and NRCl in water at 35° C. for 26 days; format: physicochemical
Method: The emulsion was prepared using 480 mg of oil stock containing 15 wt. % NRTOCl in canola oil and an aqueous phase (14.52 g) of Na-caseinate (2 wt. %), KCl (0.3 wt. %), NaCl (0.1 wt. %), CaCl2 (0.2 wt. %) and NaN3 (0.01 wt. %).
The emulsion was-prepared using 480 mg of oil stock containing 15 wt. % NRTOCl in canola oil and 0.025 g of lecithin. The aqueous phase (14.5 g) contained Na-caseinate (2 wt. %), KC (0.3 wt. %), NaCl (0.1 wt. %), CaCl2 (0.2 wt. %) and NaN3 (0.01 wt. %).
The emulsion was-prepared using 480 mg of oil stock containing 15 wt. % NRTOCl in canola oil and an aqueous phase (14.52 g) of polysorbate 80 (Tween 80) (2 wt. %).
The emulsion was prepared using around 480 mg of canola oil in an aqueous phase (14.52 g) of NRCl (19 mg), Na-caseinate (2 wt. %), KCl (0.3 wt. %), NaCl (0.1 wt. %), CaCl2 (0.2 wt. %) and NaN3 (0.01 wt. %).
After each specific time of stability for NRTOCl and NRCl emulsions, 1.5 mL of each emulsion was centrifuged (14,000 rpm) for 20 minutes at room temperature.
Since NRTOCl is a very hydrophobic compound, to evaluate its stability in oil phase, an emulsion system was used to study the stability of NRTOCl as a function of time. For this purpose, a 15% w/w solution of NRTOCl in canola oil was used for making different emulsions with Na-caseinate, Tween 80 and lecithin as the emulsifiers (2 wt. %) at room temperature.
When Na-caseinate was used as an emulsifier, the aqueous phase must be a solution of NaCl (0.1 wt. %), CaCl2 (0.2 wt. %) and KCl (0.3 wt. %) because caseinate anion with minus charge and NRTO with positive charge immediately aggregated in DI water. The total oil phase in these emulsions were 3.2 wt. %, and the concentration of NRTOCl in total volume of each emulsion (15 mL) was 4.4 mM. In the emulsions that used Na-caseinate as an emulsifier, NaN3 (0.01 wt. %) was added to prevent the growth of bacteria. When the NRTOCl emulsion was made by 2 wt. % Na-caseinate, its average size and zeta potential in this emulsion (Cas emulsion) were 1020 nm and −14.4 mV respectively.
After making NRTOCl emulsions, a NRCl in canola oil-in-water emulsion was attempted as a control experiment using 3.2% canola oil. The aqueous phase was a solution of Na-caseinate (2 wt. %), NaCl (0.1 wt. %), CaCl2 (0.2 wt. %), KCl (0.3 wt. %) and NaN3 (0.01 wt. %). The concentration of NRCl in total volume (15 mL) of this emulsion was 4.4 mM. Moreover, 15 mL of NRCl solution in DI water was prepared with 4.4 mM concentration as the other control experiment. After preparing three NRTOCl emulsions and two control experiment samples, hydrolysis stability of each sample was studied at 35° C. for 26 days (FIG. 14). The rate of degradation was measured by determination of the released nicotinamide from each sample. […]

[3] = Stability of NRTOCl and NRCl in DI water at 35° C. for 28 days (released nicotinamide by HPLC); format: physicochemical; settings: DI water, 1000 ppm, 28 days
Method: Although NRTOCl is a quaternary ammonium salt, it was not dissolved in water due to the existence of three groups of oleate fatty ester in its structure. Therefore, for the stability study of NRTOCl, this compound was dispersed in DI water using 1% ethanol as a cosolvent. For this purpose, 15 mg of NRTOCl was dissolved in 0.15 ml of ethanol (1%) and then 14.85 ml of DI water was added to the mixture and gently shaken. […] Although the average size of NRTOCl in this sample was 192 nm, the images of TEM disclosed smaller particles with around 50 nm and oval and spherical shapes with aspect ratio close to unity (FIGS. 10A-10C). In the nanoparticles, the NRTOCl structures are stacked on top of each other layer-by-layer. The highly positive charge of NRTO makes the nanoparticles stable in the aqueous phase. After dispersion of NRTOCl in DI water, NRCl was dissolved in DI water, and the stability of these samples were studied at 35° C. for 28 days (FIG. 11). The concentration of each sample was 1000 ppm. As during the hydrolysis reaction of NRTO and NR, both of these compounds released nicotinamide (FIG. 12), and by measuring the released amount of nicotinamide in each sample with HPLC, the remaining amounts of NRTO and NR in each sample were calculated. During this study, any release of NR from NRTO sample was not detected. It signifies that the heavy ester groups in NRTO sample are not hydrolyzed during the time of stability study. Because this study was performed in DI water and the conditions were mild, the NRTO was hydrolyzed from its N-glycoside bond.

[4] = Hydrolysis stability of NRTOCl emulsions and NRCl in water at room temperature for 42 days; format: physicochemical; settings: room temperature, 42 days
Method: After each specific time of stability for NRTOCl and NRCl emulsions, 1.5 mL of each emulsion was centrifuged (14,000 rpm) for 20 minutes at room temperature. […] However, during this time of stability study, 52.0% NR was intact in water at room temperature. […] During this time, these emulsions were stable without visible phase separation. A little increase in the average size of the NRTO droplets occurred in these emulsions, so that in Cas emulsion, the average size increased from 1020 nm to 1281 nm, and in Cas-Lec emulsion, this parameter increased from 1012 nm to 1106 nm.

[5] = NRTBCl stability measurement in MQ water at 35° C.; format: physicochemical; settings: 6 days, 1000 ppm, preliminary
Method: The stability study of the NRTBCl was performed by dissolving NRTB in MQ water and keeping at 35° C. for 6 days. The concentration of each sample was 1000 ppm. […] The reason for increasing the intensity of the peak at 33 min (flow rate: 0.75 mL/min), is that the byproduct of degradation is nicotinamide (NA), which has the retention time of 33 min (exactly as NRTBCl).

[6] = Solubility study of NRTBCl in long and medium chain triglycerides and in water at different pH; format: physicochemical
Method: To study the solubility of NRTBCl in long chain triglycerides, we tried to dissolve this compound in olive oil and corn oil. For this purpose, 15 mg of NRTBCl was added to 15 ml of olive oil and vigorously shaked with vortex for 10 minutes at room temperature. […] This procedure was repeated by using corn oil instead of olive oil and the obtained results disclosed that NRTB was insoluble in corn oil. To study the solubility of NRTBCl in medium chain triglycerides, we tried to dissolve this compound in coconut oil. For this purpose, 15 mg of NRTBCl was added to 15 ml of coconut oil and vigorously shaked with vortex for 10 minutes at room temperature. […] To study the solubility of NRTB in water, three aqueous solutions of NRTBCl were prepared with 10000 ppm concentration at pH 5, 7, and 9.

[7] = 15 mg in 15 ml, vortex 10 minutes, room temperature

SMILES	boost of the level of NAD+ in mammalian cell [1]	solubility in the oil phase of the emulsion [2]	remaining amount after 28 days [3] [%]	NR hydrolyzed after 42 days [4] [%]	NR intact in water after 42 days ([4]; water) [%]	hydrolysis stability in MQ water [5]	solubility (general statement) [6]	solubility in coconut oil [6, 7]	solubility in corn oil [6, 7]	solubility in olive oil [6, 7]	solubility in water at different pH ([6]; 10000 ppm, pH 5, 7, and 9, zeta sizer)
NC(=O)c1ccc[n+]([C@@H]2O[C@H](CO)[C@@H](O)[C@H]2O)c1.[Cl-] [NRCl, Nicotinamide riboside chloride, reference compound]	up to two fold	cannot be dissolved	0.6	48	52.0						
CCCC(=O)OC[C@H]1O[C@@H]([n+]2cccc(C(N)=O)c2)[C@H](OC(=O)CCC)[C@@H]1OC(=O)CCC.[Cl-] [NRTBCl, nicotinamide riboside tributyrates chloride]						easily hydrolyzed	did not demonstrate good solubility	not dissolved	insoluble	not dissolved	completely be dissolved
